From patent publication US20180208563A1, “THERMOD[…] CRYSTAL MODIFICATION OF 2-CHLORO-3-(METHYLSULFANYL)-N-(1-METHYL-1H-TETRAZOL-5-YL)-4-(TRIFLUOROMETHYL)BENZAMIDE” (BAYER CROPSCIENCE AKTIENGESELLSCHAFT, priority 2015, published 2018)

Experiments:
[1] = Stability tests: storage of an oil dispersion; type: physicochemical; conditions: after several weeks of storage, compared to an oil dispersion of the benzamide prepared according to WO 2012/028579 A1
[2] = Testing in practice of suspension formulations (crystal growth); type: physicochemical; conditions: suspension formulations with finely ground solid benzamide; spontaneously or over a longer period
Description: The benzamide known for example from WO 2012/028579 A1 (example No. 4-638 in table 4 therein) has herbicidal properties and is suitable for the production of crop protection compositions which can be employed for weed control. However, it has been shown that the benzamide preparable according to the disclosure of WO 2012/028579 A1 is not suitable for the production of user-friendly administration forms. User-friendly administration forms are, for example, suspension formulations in which the benzamide is present finely ground in solid form. […] The crystal growth can occur spontaneously or over a longer period and cannot be predicted.

Structure (SMILES) | signs of clumping and precipitation on storage [1] | crystal growth, clumping and precipitation in suspension formulations [2]
CSc1c(C(F)(F)F)ccc(C(=O)Nc2nnnn2C)c1Cl [crystal modification II, 2-chloro-3-(methylsulfanyl)-N-(1-methyl-1H-tetrazol-5-yl)-4-(trifluoromethyl)benzamide] | no signs of clumping and precipitation | –
CSc1c(C(F)(F)F)ccc(C(=O)Nc2nnnn2C)c1Cl [2-chloro-3-(methylsulfanyl)-N-(1-methyl-1H-tetrazol-5-yl)-4-(trifluoromethyl)benzamide] | – | crystal growth in suspension formulations and consequently to clumping and precipitation
